Holding throughout (assay): Z'-LYTE kinase panel
Assay type in all cases: biochemical

For test [1], the target named is T1, EPHA2 (Homo sapiens, UniProt P29317).
T1 construct: purchased ThermoFisher (SelectScreen, Z'-LYTE)
A digest of the protocol:
(§1)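 Percentage inhibition comes from a one-concentration (10 µM) Z′-LYTE screen run under standard protocol over 225 panel kinases.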

Test [2] concerns the target T2, FGFR1 (Homo sapiens, UniProt P11362).
T2 construct: purchased ThermoFisher (SelectScreen, Z'-LYTE)
A digest of the protocol: as §1

For test [3], the target named is T3, FYN (Homo sapiens, UniProt P06241).
T3 construct: purchased ThermoFisher (SelectScreen, Z'-LYTE)
T3 sequence (P06241 whole entry): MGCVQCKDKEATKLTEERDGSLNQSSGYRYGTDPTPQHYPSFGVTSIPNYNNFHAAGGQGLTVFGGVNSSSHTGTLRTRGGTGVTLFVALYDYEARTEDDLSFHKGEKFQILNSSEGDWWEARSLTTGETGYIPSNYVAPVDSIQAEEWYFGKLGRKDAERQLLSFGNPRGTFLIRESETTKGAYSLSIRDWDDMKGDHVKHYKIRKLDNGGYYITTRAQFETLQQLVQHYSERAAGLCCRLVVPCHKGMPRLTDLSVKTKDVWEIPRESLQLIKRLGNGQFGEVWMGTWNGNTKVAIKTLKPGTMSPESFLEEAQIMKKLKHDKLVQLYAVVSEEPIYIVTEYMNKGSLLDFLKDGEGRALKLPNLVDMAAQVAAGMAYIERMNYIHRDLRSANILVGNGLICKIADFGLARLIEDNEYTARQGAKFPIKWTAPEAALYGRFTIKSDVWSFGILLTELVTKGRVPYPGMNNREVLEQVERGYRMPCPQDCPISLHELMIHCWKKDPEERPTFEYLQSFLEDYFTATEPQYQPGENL
The method in brief:
as §1

Test [4] deals with T4, GSK3B (GSK3 beta) (Homo sapiens, UniProt P49841).
T4 construct: purchased ThermoFisher (SelectScreen, Z'-LYTE)
T4 sequence (P49841 whole entry): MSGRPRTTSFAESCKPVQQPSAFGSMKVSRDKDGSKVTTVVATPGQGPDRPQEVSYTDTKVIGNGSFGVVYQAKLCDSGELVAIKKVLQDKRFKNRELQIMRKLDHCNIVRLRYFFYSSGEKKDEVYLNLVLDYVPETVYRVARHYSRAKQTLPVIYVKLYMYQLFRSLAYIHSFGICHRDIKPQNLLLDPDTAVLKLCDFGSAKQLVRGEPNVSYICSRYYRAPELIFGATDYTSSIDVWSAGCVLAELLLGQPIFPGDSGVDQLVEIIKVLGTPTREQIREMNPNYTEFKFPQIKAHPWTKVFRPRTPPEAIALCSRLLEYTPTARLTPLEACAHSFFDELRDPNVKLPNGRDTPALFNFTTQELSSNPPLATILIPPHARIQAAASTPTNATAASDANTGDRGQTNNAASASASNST
The method in brief: as §1

Test [5] concerns the target T5, HIPK2 (Homo sapiens, UniProt Q9H2X6).
T5 construct: purchased ThermoFisher (SelectScreen, Z'-LYTE)
A digest of the protocol: as §1

Test [6] has as its target T6, MAPK14 (p38 alpha) Direct (Homo sapiens, UniProt Q16539).
T6 construct: purchased ThermoFisher (SelectScreen, Z'-LYTE)
The method in brief:
as §1

In test [7] the target is T7, MAPK8 (JNK1) (Homo sapiens, UniProt P45983).
T7 construct: purchased ThermoFisher (SelectScreen, Z'-LYTE)
T7 sequence (P45983 whole entry): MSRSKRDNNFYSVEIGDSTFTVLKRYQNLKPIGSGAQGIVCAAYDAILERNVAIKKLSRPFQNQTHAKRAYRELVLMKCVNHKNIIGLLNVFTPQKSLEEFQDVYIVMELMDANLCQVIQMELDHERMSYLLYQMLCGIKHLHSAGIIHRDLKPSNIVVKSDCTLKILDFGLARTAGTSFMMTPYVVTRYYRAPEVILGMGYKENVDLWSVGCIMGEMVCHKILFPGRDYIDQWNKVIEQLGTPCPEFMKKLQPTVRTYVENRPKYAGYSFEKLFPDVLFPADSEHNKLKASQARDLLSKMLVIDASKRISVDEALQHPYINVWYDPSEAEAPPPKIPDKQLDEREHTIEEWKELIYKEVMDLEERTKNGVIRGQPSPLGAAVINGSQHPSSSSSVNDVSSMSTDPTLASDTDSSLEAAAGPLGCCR
The settings on record: 10 µM compound; ATP 100. The method in brief: as §1

The target of test [8] is T8, PIM2 (Homo sapiens, UniProt Q9P1W9).
T8 construct: purchased ThermoFisher (SelectScreen, Z'-LYTE)
T8 sequence (Q9P1W9 whole entry): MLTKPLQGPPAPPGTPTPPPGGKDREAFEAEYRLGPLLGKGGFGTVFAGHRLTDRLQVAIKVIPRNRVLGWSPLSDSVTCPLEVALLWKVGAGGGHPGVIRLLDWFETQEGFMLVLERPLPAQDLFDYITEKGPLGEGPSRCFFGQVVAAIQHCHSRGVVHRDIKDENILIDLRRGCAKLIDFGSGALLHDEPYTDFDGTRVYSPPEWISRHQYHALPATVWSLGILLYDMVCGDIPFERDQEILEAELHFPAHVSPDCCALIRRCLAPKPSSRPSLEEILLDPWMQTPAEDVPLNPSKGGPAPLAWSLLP
A digest of the protocol: as §1

Test [9] has as its target T9, PLK2 (Homo sapiens, UniProt Q9NYY3).
T9 construct: purchased ThermoFisher (SelectScreen, Z'-LYTE)
The method in brief:
as §1

Test [10] has as its target T10, PRKCD (PKC delta) (Homo sapiens, UniProt Q05655).
T10 construct: purchased ThermoFisher (SelectScreen, Z'-LYTE)
A digest of the protocol: as §1

In test [11] the target is T11, PRKG2 (PKG2) (Homo sapiens, UniProt Q13237).
T11 construct: purchased ThermoFisher (SelectScreen, Z'-LYTE)
T11 sequence (Q13237 1-762): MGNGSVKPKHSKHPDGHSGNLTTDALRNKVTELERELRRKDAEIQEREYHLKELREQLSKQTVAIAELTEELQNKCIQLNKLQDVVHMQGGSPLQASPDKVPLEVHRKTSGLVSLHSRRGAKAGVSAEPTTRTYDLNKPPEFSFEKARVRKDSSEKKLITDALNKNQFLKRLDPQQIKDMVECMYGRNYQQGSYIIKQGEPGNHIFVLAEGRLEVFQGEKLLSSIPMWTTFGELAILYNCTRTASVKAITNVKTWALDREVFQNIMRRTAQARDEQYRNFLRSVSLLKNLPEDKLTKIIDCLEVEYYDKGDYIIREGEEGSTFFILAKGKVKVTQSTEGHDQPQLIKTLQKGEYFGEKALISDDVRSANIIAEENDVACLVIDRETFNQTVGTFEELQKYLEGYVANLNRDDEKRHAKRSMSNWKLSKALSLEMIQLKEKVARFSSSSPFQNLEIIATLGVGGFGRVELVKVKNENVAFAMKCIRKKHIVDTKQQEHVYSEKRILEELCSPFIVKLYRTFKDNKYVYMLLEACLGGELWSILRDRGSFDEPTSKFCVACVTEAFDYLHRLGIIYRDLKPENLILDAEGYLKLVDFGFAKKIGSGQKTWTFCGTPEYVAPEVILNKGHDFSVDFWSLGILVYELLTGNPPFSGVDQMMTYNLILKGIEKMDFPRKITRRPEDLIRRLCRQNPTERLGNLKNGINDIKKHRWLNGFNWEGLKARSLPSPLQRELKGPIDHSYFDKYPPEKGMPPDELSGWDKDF
A digest of the protocol:
as §1

Test [12] addresses T12, PRKX (Homo sapiens, UniProt P51817).
T12 construct: purchased ThermoFisher (SelectScreen, Z'-LYTE)
T12 sequence (P51817 1-358): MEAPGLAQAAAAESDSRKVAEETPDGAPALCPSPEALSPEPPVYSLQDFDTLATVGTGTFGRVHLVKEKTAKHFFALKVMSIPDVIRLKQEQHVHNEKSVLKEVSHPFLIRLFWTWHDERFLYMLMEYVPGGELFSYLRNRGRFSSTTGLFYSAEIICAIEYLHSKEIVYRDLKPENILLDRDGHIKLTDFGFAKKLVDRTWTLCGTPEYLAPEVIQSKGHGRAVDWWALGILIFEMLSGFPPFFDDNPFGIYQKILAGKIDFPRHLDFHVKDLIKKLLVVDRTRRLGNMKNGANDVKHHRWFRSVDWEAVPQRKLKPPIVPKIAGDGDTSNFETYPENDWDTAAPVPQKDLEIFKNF
A digest of the protocol: as §1

The target in test [13] is T13, SRMS (Srm) (Homo sapiens, UniProt Q9H3Y6).
T13 construct: purchased ThermoFisher (SelectScreen, Z'-LYTE)
T13 sequence (Q9H3Y6 whole entry): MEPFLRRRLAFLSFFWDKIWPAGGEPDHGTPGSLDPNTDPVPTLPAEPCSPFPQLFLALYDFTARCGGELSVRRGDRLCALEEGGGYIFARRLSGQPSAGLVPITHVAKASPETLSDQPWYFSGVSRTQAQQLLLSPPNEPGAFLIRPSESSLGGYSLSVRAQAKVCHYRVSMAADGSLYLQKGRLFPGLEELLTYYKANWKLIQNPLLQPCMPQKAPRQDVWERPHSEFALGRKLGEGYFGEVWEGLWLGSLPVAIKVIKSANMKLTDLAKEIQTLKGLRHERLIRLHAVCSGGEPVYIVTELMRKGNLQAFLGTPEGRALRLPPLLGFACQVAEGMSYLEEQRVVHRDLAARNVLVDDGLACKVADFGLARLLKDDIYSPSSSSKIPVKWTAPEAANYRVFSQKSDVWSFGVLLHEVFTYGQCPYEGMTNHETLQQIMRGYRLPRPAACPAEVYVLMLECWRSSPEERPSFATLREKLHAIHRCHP
A digest of the protocol:
as §1

Test [14] has as its target T14, SRPK2 (Homo sapiens, UniProt P78362).
T14 construct: purchased ThermoFisher (SelectScreen, Z'-LYTE)
The method in brief: as §1

The target in test [15] is T15, SYK (Homo sapiens, UniProt P43405).
T15 construct: purchased ThermoFisher (SelectScreen, Z'-LYTE)
The settings on record: 10 µM compound, ATP Km app. The method in brief:
as §1

As a reminder, the inhibition is the relative decrease from the control value, in per cent.

T14 sequence (P78362 whole entry): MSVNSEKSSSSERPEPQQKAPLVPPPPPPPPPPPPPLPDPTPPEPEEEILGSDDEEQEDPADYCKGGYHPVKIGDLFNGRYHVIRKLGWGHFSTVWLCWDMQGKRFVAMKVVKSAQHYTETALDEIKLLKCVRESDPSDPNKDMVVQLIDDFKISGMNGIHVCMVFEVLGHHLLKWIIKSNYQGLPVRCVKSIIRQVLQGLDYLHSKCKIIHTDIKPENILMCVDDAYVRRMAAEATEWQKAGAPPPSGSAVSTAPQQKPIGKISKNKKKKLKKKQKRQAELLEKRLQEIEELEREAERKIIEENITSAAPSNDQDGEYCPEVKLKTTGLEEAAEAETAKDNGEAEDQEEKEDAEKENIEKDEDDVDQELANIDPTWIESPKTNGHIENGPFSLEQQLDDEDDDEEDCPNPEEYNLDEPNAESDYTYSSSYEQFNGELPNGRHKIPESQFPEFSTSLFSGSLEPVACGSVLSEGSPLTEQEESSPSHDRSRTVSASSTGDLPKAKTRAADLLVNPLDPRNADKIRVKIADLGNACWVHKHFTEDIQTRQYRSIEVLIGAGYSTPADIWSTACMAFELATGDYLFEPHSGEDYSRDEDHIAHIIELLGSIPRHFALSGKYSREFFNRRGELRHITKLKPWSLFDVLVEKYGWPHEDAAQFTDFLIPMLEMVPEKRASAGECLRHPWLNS
T6 sequence (Q16539 whole entry): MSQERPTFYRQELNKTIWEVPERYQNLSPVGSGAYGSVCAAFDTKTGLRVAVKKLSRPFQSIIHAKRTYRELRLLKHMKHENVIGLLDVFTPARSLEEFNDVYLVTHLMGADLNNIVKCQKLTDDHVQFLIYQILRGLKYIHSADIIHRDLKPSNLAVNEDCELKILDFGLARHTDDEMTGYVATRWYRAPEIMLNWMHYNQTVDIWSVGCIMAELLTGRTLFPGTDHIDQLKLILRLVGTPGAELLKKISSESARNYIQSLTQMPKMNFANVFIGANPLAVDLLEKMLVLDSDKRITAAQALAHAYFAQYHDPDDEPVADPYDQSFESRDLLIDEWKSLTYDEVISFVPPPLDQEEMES
T2 sequence (P11362 22-822): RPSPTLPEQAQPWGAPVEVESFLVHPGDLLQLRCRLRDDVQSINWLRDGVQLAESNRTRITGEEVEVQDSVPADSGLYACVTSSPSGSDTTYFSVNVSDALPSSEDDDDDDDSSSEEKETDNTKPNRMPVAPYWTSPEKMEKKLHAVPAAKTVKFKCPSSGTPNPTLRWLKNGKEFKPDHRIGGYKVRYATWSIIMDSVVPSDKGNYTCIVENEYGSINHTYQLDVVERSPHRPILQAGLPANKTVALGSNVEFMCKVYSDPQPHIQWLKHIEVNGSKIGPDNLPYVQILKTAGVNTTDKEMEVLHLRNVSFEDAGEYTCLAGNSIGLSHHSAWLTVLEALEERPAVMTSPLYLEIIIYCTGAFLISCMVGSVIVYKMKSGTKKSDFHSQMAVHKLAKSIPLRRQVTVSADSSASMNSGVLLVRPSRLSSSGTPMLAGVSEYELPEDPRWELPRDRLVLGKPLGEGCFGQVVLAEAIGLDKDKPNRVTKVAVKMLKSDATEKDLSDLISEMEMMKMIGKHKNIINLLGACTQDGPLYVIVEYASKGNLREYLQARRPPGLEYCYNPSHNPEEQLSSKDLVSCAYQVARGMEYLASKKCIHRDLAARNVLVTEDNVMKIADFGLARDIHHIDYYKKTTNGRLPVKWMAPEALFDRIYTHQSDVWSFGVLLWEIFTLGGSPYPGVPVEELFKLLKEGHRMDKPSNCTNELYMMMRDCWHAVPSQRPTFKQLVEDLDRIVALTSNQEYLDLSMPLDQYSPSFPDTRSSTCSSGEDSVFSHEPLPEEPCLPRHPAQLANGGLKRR
T10 sequence (Q05655 whole entry): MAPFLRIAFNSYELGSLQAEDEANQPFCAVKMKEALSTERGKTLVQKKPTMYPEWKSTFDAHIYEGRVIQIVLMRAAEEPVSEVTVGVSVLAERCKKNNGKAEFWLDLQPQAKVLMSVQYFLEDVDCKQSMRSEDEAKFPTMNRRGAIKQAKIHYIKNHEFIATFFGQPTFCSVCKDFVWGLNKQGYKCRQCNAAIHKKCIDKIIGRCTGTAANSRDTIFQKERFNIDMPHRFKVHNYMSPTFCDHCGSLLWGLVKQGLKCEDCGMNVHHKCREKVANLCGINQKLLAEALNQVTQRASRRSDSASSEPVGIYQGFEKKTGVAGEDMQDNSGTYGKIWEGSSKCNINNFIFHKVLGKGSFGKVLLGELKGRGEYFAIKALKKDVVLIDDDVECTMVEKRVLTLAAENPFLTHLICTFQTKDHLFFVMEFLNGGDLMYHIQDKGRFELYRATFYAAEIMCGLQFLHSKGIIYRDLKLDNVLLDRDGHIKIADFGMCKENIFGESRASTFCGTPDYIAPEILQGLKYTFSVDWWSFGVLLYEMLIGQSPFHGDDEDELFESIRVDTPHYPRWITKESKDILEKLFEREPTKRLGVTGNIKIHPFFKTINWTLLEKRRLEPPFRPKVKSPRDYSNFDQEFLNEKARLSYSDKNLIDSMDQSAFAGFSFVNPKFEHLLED

Take `Cc1ncc(-c2nc(Nc3ccc(C(=O)NCCN4CCCCC4)cc3)ncc2F)n1C(C)C` [Compound 3]: the inhibition at 10 µM amounted to 69% in test [1]; 73% in test [2]; 74% in [3]; 101% in test [4]; 93% in test [5]; 9% in [6]. The inhibition at 10 µM in test [7] worked out at 96%; in test [8], 40%; in test [9] it was 48%; in test [10], 97%; in [11], 95%; in test [12], 84%. For the same molecule, the inhibition at 10 µM in [13] came to 20%; in test [14], 25%; in [15], 90%.
Turning to `Cc1cc(Nc2nc(N)nn2C(=O)NC(C)C)ccc1Cl` [Compound 5], the inhibition at 10 µM is -1.47% in [1]; 17% in test [2]; 15% in test [3]; 79% in test [4]; 45% in test [5]; 9% in test [6]. In addition, the inhibition at 10 µM in [7] is -11%; in test [8] it was -13%; in test [9] it was 63%; in [10] it was 1.15%; in test [11] it was -9%; in test [12], 8.43%. Also, the inhibition at 10 µM in test [13] was 2.26%; in test [14], -5%; in [15], greater than 80%. Besides, in test [15] (listed as SN1109056190, 10 µM), the “SYK % Inhibition” value is 85%.
For the molecule “XMD8-92 [Compound 2, reference compound]”, in test [1] (10 µM compound, ATP Km app), the “EPHA2 % Inhibition” value is -9.52%. For the same molecule, the “FGFR1 % Inhibition” value in [2] (10 µM compound, ATP Km app) is 8%. The “FYN % Inhibition” value in test [3] (10 µM compound, ATP Km app) is recorded as -14%. The “GSK3B (GSK3 beta) % Inhibition” value in test [4] (10 µM compound, ATP Km app) is reported as 88%. The “HIPK2 % Inhibition” value in test [5] (10 µM compound, ATP Km app) came out at 2%. The “MAPK14 (p38 alpha) Direct % Inhibition” value in test [6] (10 µM compound, ATP Km app) was found to be 8%. For the same molecule, the “MAPK8 (JNK1) % Inhibition” value in test [7] is listed as 14%. Moreover, the “PIM2 % Inhibition” value in [8] (10 µM compound, ATP Km app) is 22%. Besides, the “PLK2 % Inhibition” value in test [9] (10 µM compound, ATP Km app) is on record as 12%. For the same molecule, the “PRKCD (PKC delta) % Inhibition” value in test [10] (10 µM compound, ATP Km app) is recorded as -3.55%. For the same molecule, the “PRKG2 (PKG2) % Inhibition” value in [11] (10 µM compound, ATP Km app) came out at 43%. The “PRKX % Inhibition” value in test [12] (10 µM compound, ATP Km app) was determined as 25%. Also, in test [13] (10 µM compound, ATP Km app), the “SRMS (Srm) % Inhibition” value is given as 21%. In addition, the “SRPK2 % Inhibition” value in test [14] (10 µM compound, ATP Km app) was -19%. The “SYK % Inhibition” value in test [15] came to 22%.
